Reference: patent publication US12668803B2, “Glypican-3-specific modified aptamer and use thereof” (APTAMER SCIENCES INC., priority 2019, dated 2026)

How the values were obtained:
Assay type in all cases: cell-based
Huh 7 cells = assay: Cell binding analysis of Cy5-labeled aptamers (FACS); conditions: three vs five gemcitabines bound, method of Example 2-1, FIG. 19
Protocol: (§1) The 12-10 aptamer and 5 aptamer libraries prepared by truncating the 12-10 aptamer at various lengths [12-10 (40-mer), 12-12 (35-mer), 12-11 (29-mer), 12-13 (24-mer), 12-14 (23-mer), 12-15 (18-mer)] were subjected to cell binding analysis. Each aptamer sequence was labeled with Cy5 at the 5′ end thereof according to the method of Example 1-1. Huh 7 cells (ATCC, Rockville, MD, USA) were seeded at a density of 2×10^6/mL in a 100 mm^2 culture plate, and cultured using a DMEM medium (Gibco, Grand Island, NY, USA) containing 10% FBS (Gibco, Grand Island, NY, USA) and 1% antibiotics (penicillin/streptomycin) under conditions of 5% CO2 and 37° C. 5 μM of the aptamer stock was mixed with 5×SB18 buffer to prepare the aptamer at a concentration of 4 μM, and heated at 95° C. for 5 min, and then cooled at room temperature for 15 min or more. 4 μM of the aptamer was diluted with KRPH buffer (20 mM HEPES, 5 mM KH2PO4, 1 mM MgSO4, 1 mM CaCl2, 136 mM NaCl, 4.7 mM KCl, pH 7.4) at a concentration of 25 nM. The culture medium was removed from the cultured cells, and 4 mL of phosphate-buffered saline (PBS) was added thereto, followed by washing, and then 4 mL of PBS was removed. 4 mL of cold PBS or warm PBS was added, and cells were scraped using a scraper, and collected in tubes, followed by pipetting. The cells were divided and added to fluorescence-activated cell sorting (FAC) tubes according to the number of samples, followed by centrifugation at 4° C. and 2000 rpm for 4 min. After removing the supernatant, each 500 μL of 25 nM aptamer and control (31-08 (40-mer) aptamer) were added to 15 mL of KRPH buffer, followed by pipetting. The tube was covered with foil to block the light, followed by incubation at 4° C. for 30 min. After incubation, centrifugation was performed at 4° C. and 2000 rpm for 4 min, and the supernatant was removed. 2 mL of cold 1×PBS was added, washed, centrifuged at 4° C. and 2000 rpm for 4 min, and the supernatant was removed. This process was repeated three times. […] Cy5 was measured at […]. […]

[1] = test system: squamous cell carcinoma cells (A431); assay: Cell cycle analysis (propidium iodide, FACS); conditions: 4 hr treatment, FIG. 27
Protocol: (§2) To analyze the effects of combi 4 and combi 5 bound with three or five gemcitabines on the cell cycle of hepatoma cells, cell cycle analysis was performed. In detail, Hep3B, HepG2, and A431 cells were seeded in a 6-well plate at a density of 1×10^6/ml, and cultured using a DMEM medium containing 10% FBS and 1% antibiotics (penicillin/streptomycin) under conditions of 5% CO2 and 37° C., respectively. Next day, 100 μM of the modified aptamer stock was mixed with 5×SB18 buffer to prepare the aptamer at a concentration of 80 μM, and heated at 95° C. for 5 min, and then cooled at room temperature for 15 min or more. The medium was removed from the cultured cells, and replaced by a serum-free medium, and cultured under conditions of 37° C. and 5% CO2 for 1 hr. The serum-free medium was removed, and then the cells were washed with 2 ml of 1×PBS. 2 ml of KRPH buffer was added, and cultured under conditions of 37° C. and 5% CO2 for 1 hr. The aptamer was added, and cultured under conditions of 37° C. and 5% CO2 for 4 hr. The KRPH buffer was removed, and 2 ml of 1×PBS was added thereto to perform washing, and then PBS was removed. 2 ml of 1×PBS was added, and cells were scraped using a scraper, and collected in FACs tubes, followed by centrifugation at 4° C. and 2000 rpm for 4 minutes. 1/500-fold diluted RNAase A and propidium iodide diluted with PBS at a concentration of 50 μg/ml were added to the FACs tubes at a volume of 500 μL, followed by pipetting. Incubation was performed at room temperature for 30 min while blocking the light, and then cell cycle was measured.

[2] = test system: hepatoma cells (Hep3B, HepG2); assay: Cell cycle analysis (propidium iodide, FACS); conditions: 4 hr treatment, FIGS. 25 and 26
Protocol: as §2

[3] = test system: GPC3-expressing hepatoma cells; assay: Cell-killing effect (CCK-8) of gemcitabine-bound combi aptamers; conditions: FIG. 23 and FIG. 24
Protocol: In detail, Huh-7 cells (ATCC, Rockville, MD, USA) were seeded in a 96-well plate at a density of 1×10^4/mL, and cultured using a DMEM (Gibco, Grand Island, NY, USA) medium containing 10% FBS (Gibco, Grand Island, NY, USA) and 1% antibiotics (penicillin/streptomycin) under conditions of 5% CO2 and 37° C. Next day, the aptamer stock (100 μM) was mixed with 5×SB18 buffer to prepare the stock at a concentration of 80 μM, and heated at 95° C. for 5 min, and then cooled at room temperature for 15 min or more. The medium was removed from the cultured cells, and 100 μL of a serum-free medium was added thereto, and cultured under conditions of 37° C. and 5% CO2 for 1 hr. The serum-free medium was removed, and then the cells were washed with 100 μL of 1×PBS. 100 μL of KRPH buffer was added, and cultured under conditions of 37° C. and 5% CO2 for 1 hr. The aptamer was diluted with KRPH buffer to 2-fold of the desired concentration, and added to a 96-well plate at 1× concentration, and cultured under conditions of 37° C. and 5% CO2 for 4 hr. After treatment with the aptamer, the KRPH buffer was removed, and then 100 μL of culture medium was added and cultured under conditions of 37° C. and 5% CO2 for […]. 6 days later, 10 μL of a kit solution of CCK-8 (Cell Counting Kit-8) was added to each well, and then cultured under conditions of 37° C. and 5% CO2 for 3 hr. Cell death levels were examined at […] using a microplate reader.

HepG2 = assay: Cellular internalization of gemcitabine-bound chemically optimized aptamers; conditions: analysis in HepG2 and A431 cells, FIGS. 20 to 22
Protocol: [The source words this procedure for another cell line and reports this cell line under the same test.] 5 aptamer libraries prepared by truncating the 12-10 aptamer at various lengths [12-12 (35-mer), 12-11 (29-mer), 12-13 (24-mer), 12-14 (23-mer), and 12-15 (18-mer)] were subjected to cellular internalization analysis. In detail, a 6-well plate was prepared, and a round cover glass was placed in the 6-well plate. Huh-7 cells were cultured in the 6-well plate according to the method of Example 1-3. 5 μM of the aptamer stock was mixed with 5×SB18 buffer to prepare the aptamer at a concentration of 4 μM, and heated at 95° C. for 5 min, and then cooled at room temperature for 15 min or more. The next day, the medium was removed from the cultured cells, and a serum-free medium was added thereto, and cultured under conditions of 37° C. and 5% CO2 for 1 hr. The serum-free medium was removed, and then the cells were washed with 2 mL of 1×PBS. KRPH buffer was added, and cultured under conditions of 37° C. and 5% CO2 for 1 hr. 4 μM aptamer was diluted to 25 nM, and then cultured under conditions of 37° C. and 5% CO2 for 1 hr or 4 hr. Washing was repeated three times with 2 mL of 1×PBS. Washing was performed in a shaker at room temperature for 10 min while blocking the light. Thereafter, the cells were fixed by treatment with 4% paraformaldehyde at 4° C. for 10 min. Washing was repeated three times with 2 mL of 1×PBS. […]

Hep3B = assay: Cellular internalization of chemically optimized aptamers (FIG. 17A); conditions: combi 1 to combi 5, FIG. 17A
HepG2 cell = assay: Cell binding analysis of chemically optimized aptamers; conditions: combi 1 to combi 5, FIG. 16
Protocol: [The source words this procedure for another cell line and reports this cell line under the same test.] as §1, with “4 mL of cold PBS or warm PBS was added, and cells were scraped using a scraper, and collected in tubes, followed by pipetting.” left out, “min.” for “min. After removing the supernatant, each 500 μL of 25 nM aptamer and control (31-08 (40-mer) aptamer) were added to 15 mL of KRPH buffer, followed by pipetting. The tube was covered with foil to block the light, followed by incubation at 4° C. for 30 min. After incubation, centrifugation was performed at 4° C. and 2000 rpm for 4 min, and the supernatant was removed. 2 mL of cold 1×PBS was added, washed, centrifuged at 4° C. and 2000 rpm for 4 min, and the supernatant was removed. This process was repeated three times.”

With “Combi 4 G(3) (DNA GNGAANGCGNNGAANNANGYSSSNNCAGNCANCAC; gemcitabines, 2'-OMe, 2'-F, BzdU, 3' idT; Combi 4 G(3); (1)..(1) G is 2-O-Methoxy-DNA.; (2)..(2) n is BzdU.; (3)..(3) G is 2-O-Methoxy-DNA.; (4)..(4) A is 2-Fluorine-DNA.; (5)..(5) A is 2-Fluorine-DNA.; (6)..(6) n is BzdU.; (10)..(10) n is BzdU.; (11)..(11) n is BzdU.; (12)..(12) G is 2-Fluorine-DNA.; (13)..(13) A is 2-Fluorine-DNA.; (14)..(14) A is 2-Fluorine-DNA.; (15)..(15) n is BzdU.; (16)..(16) n is BzdU.; (17)..(17) A is 2-Fluorine-)” the cell binding ability (Huh 7 cells) was “excellent cell binding ability”, the cell cycle arrest [1] was “no cell cycle arrest” and the cell cycle arrest [2] was “arrested hepatoma cells at the G1/S phase”. The “concentration from which a cell-killing effect is shown” value [3] was 100 nM and the cellular internalization (HepG2) was “excellent cellular internalization”.
In the case of “Combi 5: SEQ ID NO: 14, chemically optimized 12-12 aptamer (G_{Me}nG_{Me}A_{F}A_{F}nGCGnnG_{F}A_{F}A_{Me}nnA_{Me}nWYC_{F}C_{F}C_{F}nnCAG_{Me}nCAnC_{F}A_{Me}C_{F}; 2'-F and 2'-OMe units, modified bases n, W, Y undefined, 3' idT, as printed in the source, key not given here)”, the Hep3B cellular internalization (Hep3B) is reported as “highest” and the HepG2 cell binding (HepG2 cell) is reported as “most similar to that of 12-12”.
